The structures appear in SMILES notation. Converted amounts (≈) assume the structure as drawn. The source made the active and inactive calls.

The source of these data is ChEMBL document CHEMBL3112509, “Synthesis and antimicrobial activity of (1,4-phenylene)bis(arylsulfonylpyrazoles and isoxazoles)” (2014).

Holding throughout (format): functional
Assay [1] deals with Penicillium chrysogenum. Kind of assay: Antifungal activity against Penicillium chrysogenum at 100 ug/well after 48 hrs by agar well diffusion method. The conditions noted are these: read-out: DIZ. On the technique in general: A growth-free zone around the sample is the usual read-out of agar diffusion tests.
For assay [2], the system named is Klebsiella pneumoniae. Kind of assay: Antibacterial activity against Klebsiella pneumoniae at 100 ug/well after 24 hrs by agar well diffusion method. Conditions: for zone of inhibition at 100 µg/disc: read-out: DIZ.
Assay [3] concerns Bacillus subtilis. Nature of the assay: Antibacterial activity against Bacillus subtilis at 100 ug/well after 24 hrs by agar well diffusion method. The conditions noted are these: for zone of inhibition at 100 µg/disc: read-out: DIZ.
Assay [4] concerns Bacillus subtilis. Nature of the assay: Antibacterial activity against Bacillus subtilis at 50 ug/well after 24 hrs by agar well diffusion method. Conditions: for zone of inhibition at 50 µg/disc: read-out: DIZ.
The test system of assay [5] is Pseudomonas aeruginosa. Kind of assay: Antibacterial activity against Pseudomonas aeruginosa at 50 ug/well after 24 hrs by agar well diffusion method. Conditions: for zone of inhibition at 50 µg/disc: read-out: DIZ.
The test system of assay [6] is Klebsiella pneumoniae. Nature of the assay: Antibacterial activity against Klebsiella pneumoniae at 50 ug/well after 24 hrs by agar well diffusion method. The conditions noted are these: for zone of inhibition at 50 µg/disc: read-out: DIZ.
Assay [7] relates to Aspergillus niger. Nature of the assay: Antifungal activity against Aspergillus niger at 50 ug/well after 48 hrs by agar well diffusion method. The conditions noted are these: read-out: DIZ.
Assay [8] deals with Penicillium chrysogenum. Kind of assay: Antifungal activity against Penicillium chrysogenum at 50 ug/well after 48 hrs by agar well diffusion method. The conditions noted are these: read-out: DIZ.
The test system of assay [9] is Pseudomonas aeruginosa. Nature of the assay: Antibacterial activity against Pseudomonas aeruginosa at 100 ug/well after 24 hrs by agar well diffusion method. The conditions noted are these: for zone of inhibition at 100 µg/disc: read-out: DIZ.
The test system of assay [10] is Staphylococcus aureus. Nature of the assay: Antibacterial activity against Staphylococcus aureus at 100 ug/well after 24 hrs by agar well diffusion method. The conditions noted are these: for zone of inhibition at 100 µg/disc: read-out: DIZ.
Assay [11] deals with Aspergillus niger. Kind of assay: Antifungal activity against Aspergillus niger at 100 ug/well after 48 hrs by agar well diffusion method. Conditions: read-out: DIZ.
In assay [12] the test system is Staphylococcus aureus. Kind of assay: Antibacterial activity against Staphylococcus aureus at 50 ug/well after 24 hrs by agar well diffusion method. Conditions: for zone of inhibition at 50 µg/disc: read-out: DIZ.
The subject of assay [13] is Penicillium chrysogenum. Nature of the assay: Antifungal activity against Penicillium chrysogenum after 48 hrs by broth dilution test.
Assay [14] concerns Aspergillus niger. Nature of the assay: Antifungal activity against Aspergillus niger after 48 hrs by broth dilution test. A general note: Broth dilution looks for growth in wells or tubes with falling amounts of substance.

On to `COc1ccc(C2=NN(c3ccccc3)C(c3ccc(C4C(S(=O)(=O)c5ccc(C)cc5)C(c5ccc(OC)cc5)=NN4c4ccccc4)cc3)C2S(=O)(=O)c2ccc(C)cc2)cc1` (stereo not drawn), for which the zone of inhibition at 100 µg/disc in the assay with Penicillium chrysogenum [1] is 13 mm; in the assay on Aspergillus niger [11] it was 9 mm. The “diameter of the inhibition zone (DIZ)” value in the assay with Klebsiella pneumoniae [2], with Bacillus subtilis [3], in the assay on Bacillus subtilis [4], in the assay on Pseudomonas aeruginosa [5], in the assay with Klebsiella pneumoniae [6] and in the assay on Pseudomonas aeruginosa [9] was “inactive” in each case. Moreover, the “diameter of the inhibition zone (DIZ)” value in the assay on Staphylococcus aureus [10] and with Staphylococcus aureus [12] was “inactive” each time. Also, the zone of inhibition at 50 µg/disc came to 8 mm in the assay with Aspergillus niger [7] and 10 mm in the assay with Penicillium chrysogenum [8].

Turning to `COc1ccc(C2=NOC(c3ccc(C4ON=C(c5ccc(OC)cc5)C4S(=O)(=O)c4ccc(Cl)cc4)cc3)C2S(=O)(=O)c2ccc(Cl)cc2)cc1` (stereo not drawn), the zone of inhibition at 100 µg/disc with Penicillium chrysogenum [1] stood at 19 mm; with Klebsiella pneumoniae [2], 11 mm; in the assay on Bacillus subtilis [3], 15 mm; in the assay with Staphylococcus aureus [10], 12 mm; in the assay with Aspergillus niger [11], 16 mm. Moreover, the zone of inhibition at 50 µg/disc with Bacillus subtilis [4] came out at 13 mm; in the assay with Klebsiella pneumoniae [6], 9 mm; in the assay with Aspergillus niger [7], 14 mm; with Penicillium chrysogenum [8], 16 mm; in the assay on Staphylococcus aureus [12] it was 9 mm. The “diameter of the inhibition zone (DIZ)” value in the assay with Pseudomonas aeruginosa [5] and with Pseudomonas aeruginosa [9] was “inactive” in each case.

As for `O=S(=O)(c1ccccc1)c1c(-c2ccc(Cl)cc2)nn(-c2ccccc2)c1-c1ccc(-c2c(S(=O)(=O)c3ccccc3)c(-c3ccc(Cl)cc3)nn2-c2ccccc2)cc1`, the zone of inhibition at 100 µg/disc with Penicillium chrysogenum [1] stood at 30 mm; in the assay with Klebsiella pneumoniae [2], 23 mm; with Bacillus subtilis [3], 31 mm; in the assay on Pseudomonas aeruginosa [9], 19 mm; in the assay with Staphylococcus aureus [10] it was 25 mm; with Aspergillus niger [11], 27 mm. Also, the zone of inhibition at 50 µg/disc with Bacillus subtilis [4] turned out to be 28 mm; in the assay on Pseudomonas aeruginosa [5], 17 mm; in the assay on Klebsiella pneumoniae [6], 21 mm; with Aspergillus niger [7], 24 mm; in the assay with Penicillium chrysogenum [8] it was 27 mm; with Staphylococcus aureus [12], 23 mm.

As for `COc1ccc(C2=NN(c3ccccc3)C(c3ccc(C4C(S(=O)(=O)c5ccccc5)C(c5ccc(OC)cc5)=NN4c4ccccc4)cc3)C2S(=O)(=O)c2ccccc2)cc1` (stereo not drawn), the results for the zone of inhibition at 100 µg/disc in the assay with Penicillium chrysogenum [1] and in the assay with Aspergillus niger [11] were 16 mm and 10 mm, respectively. In addition, the “diameter of the inhibition zone (DIZ)” value in the assay on Klebsiella pneumoniae [2], in the assay on Bacillus subtilis [3], in the assay with Bacillus subtilis [4], in the assay with Pseudomonas aeruginosa [5], in the assay on Klebsiella pneumoniae [6] and with Pseudomonas aeruginosa [9] was “inactive” each time. The “diameter of the inhibition zone (DIZ)” value in the assay on Staphylococcus aureus [10] and in the assay on Staphylococcus aureus [12] was “inactive” in each case. Besides, the zone of inhibition at 50 µg/disc came out at 8 mm with Aspergillus niger [7] and 12 mm in the assay on Penicillium chrysogenum [8].

For the molecule `O=S(=O)(c1ccc(Cl)cc1)C1C(c2ccc(Cl)cc2)=NN(c2ccccc2)C1c1ccc(C2C(S(=O)(=O)c3ccc(Cl)cc3)C(c3ccc(Cl)cc3)=NN2c2ccccc2)cc1` (stereo not drawn), the zone of inhibition at 100 µg/disc in the assay with Penicillium chrysogenum [1] turned out to be 20 mm; with Klebsiella pneumoniae [2], 13 mm; in the assay on Bacillus subtilis [3], 16 mm; in the assay on Staphylococcus aureus [10] it was 14 mm; with Aspergillus niger [11] it was 15 mm. In addition, the zone of inhibition at 50 µg/disc with Bacillus subtilis [4] came to 13 mm; in the assay with Klebsiella pneumoniae [6] it was 10 mm; in the assay with Aspergillus niger [7], 13 mm; in the assay on Penicillium chrysogenum [8], 18 mm; in the assay on Staphylococcus aureus [12], 11 mm. The “diameter of the inhibition zone (DIZ)” value in the assay with Pseudomonas aeruginosa [5] and with Pseudomonas aeruginosa [9] was “inactive” each time.

Turning to `COc1ccc(-c2nn(-c3ccccc3)c(-c3ccc(-c4c(S(=O)(=O)c5ccccc5)c(-c5ccc(OC)cc5)nn4-c4ccccc4)cc3)c2S(=O)(=O)c2ccccc2)cc1`, the zone of inhibition at 100 µg/disc with Penicillium chrysogenum [1] was 25 mm; in the assay on Klebsiella pneumoniae [2] it was 16 mm; with Bacillus subtilis [3], 24 mm; in the assay with Pseudomonas aeruginosa [9], 14 mm; in the assay on Staphylococcus aureus [10], 19 mm; with Aspergillus niger [11], 22 mm. The zone of inhibition at 50 µg/disc in the assay with Bacillus subtilis [4] stood at 20 mm; in the assay with Pseudomonas aeruginosa [5], 12 mm; with Klebsiella pneumoniae [6] it was 15 mm; with Aspergillus niger [7], 20 mm; in the assay on Penicillium chrysogenum [8], 23 mm; in the assay with Staphylococcus aureus [12], 17 mm.

Take `COc1ccc(-c2noc(-c3ccc(-c4onc(-c5ccc(OC)cc5)c4S(=O)(=O)c4ccccc4)cc3)c2S(=O)(=O)c2ccccc2)cc1`: the zone of inhibition at 100 µg/disc with Penicillium chrysogenum [1] is 29 mm; in the assay with Klebsiella pneumoniae [2] it was 21 mm; in the assay with Bacillus subtilis [3], 28 mm; in the assay on Pseudomonas aeruginosa [9], 18 mm; in the assay on Staphylococcus aureus [10] it was 23 mm; in the assay with Aspergillus niger [11] it was 30 mm. The zone of inhibition at 50 µg/disc in the assay with Bacillus subtilis [4] stood at 26 mm; with Pseudomonas aeruginosa [5], 16 mm; in the assay with Klebsiella pneumoniae [6], 18 mm; in the assay on Aspergillus niger [7], 27 mm; in the assay with Penicillium chrysogenum [8] it was 26 mm; in the assay on Staphylococcus aureus [12], 20 mm.

As to `COc1ccc(-c2nn(-c3ccccc3)c(-c3ccc(-c4c(S(=O)(=O)c5ccc(Cl)cc5)c(-c5ccc(OC)cc5)nn4-c4ccccc4)cc3)c2S(=O)(=O)c2ccc(Cl)cc2)cc1`, the zone of inhibition at 100 µg/disc in the assay on Penicillium chrysogenum [1] came to 26 mm; with Klebsiella pneumoniae [2] it was 17 mm; in the assay on Bacillus subtilis [3], 25 mm; in the assay on Pseudomonas aeruginosa [9] it was 16 mm; in the assay on Staphylococcus aureus [10], 20 mm; in the assay with Aspergillus niger [11] it was 27 mm. The zone of inhibition at 50 µg/disc in the assay on Bacillus subtilis [4] was 23 mm; in the assay with Pseudomonas aeruginosa [5], 14 mm; in the assay with Klebsiella pneumoniae [6] it was 15 mm; in the assay on Aspergillus niger [7], 25 mm; with Penicillium chrysogenum [8], 24 mm; with Staphylococcus aureus [12], 18 mm.

As for `COc1ccc(C2=NOC(c3ccc(C4ON=C(c5ccc(OC)cc5)C4S(=O)(=O)c4ccccc4)cc3)C2S(=O)(=O)c2ccccc2)cc1` (stereo not drawn), the values for the zone of inhibition at 100 µg/disc in the assay with Penicillium chrysogenum [1] and in the assay with Aspergillus niger [11] were 17 mm and 20 mm, respectively. In addition, the “diameter of the inhibition zone (DIZ)” value in the assay on Klebsiella pneumoniae [2], in the assay with Bacillus subtilis [3], with Bacillus subtilis [4], in the assay on Pseudomonas aeruginosa [5], in the assay on Klebsiella pneumoniae [6] and in the assay with Pseudomonas aeruginosa [9] was “inactive” each time. Also, the “diameter of the inhibition zone (DIZ)” value in the assay with Staphylococcus aureus [10] and in the assay with Staphylococcus aureus [12] was “inactive” throughout. Further, the values for the zone of inhibition at 50 µg/disc with Aspergillus niger [7] and in the assay with Penicillium chrysogenum [8] were 18 mm and 14 mm, respectively.

Take `COc1ccc(C2=NN(c3ccccc3)C(c3ccc(C4C(S(=O)(=O)c5ccc(Cl)cc5)C(c5ccc(OC)cc5)=NN4c4ccccc4)cc3)C2S(=O)(=O)c2ccc(Cl)cc2)cc1` (stereo not drawn): the results for the zone of inhibition at 100 µg/disc with Penicillium chrysogenum [1] and in the assay with Aspergillus niger [11] were 17 mm and 11 mm, respectively. For the same molecule, the “diameter of the inhibition zone (DIZ)” value in the assay on Klebsiella pneumoniae [2], with Bacillus subtilis [3], in the assay on Bacillus subtilis [4], in the assay with Pseudomonas aeruginosa [5], in the assay on Klebsiella pneumoniae [6] and in the assay on Pseudomonas aeruginosa [9] was “inactive” each time. The “diameter of the inhibition zone (DIZ)” value with Staphylococcus aureus [10] and with Staphylococcus aureus [12] was “inactive” throughout. For the same molecule, the zone of inhibition at 50 µg/disc with Aspergillus niger [7] stood at 10 mm; in the assay with Penicillium chrysogenum [8], 15 mm.

`Cc1ccc(S(=O)(=O)C2C(c3ccc(Cl)cc3)=NN(c3ccccc3)C2c2ccc(C3C(S(=O)(=O)c4ccc(C)cc4)C(c4ccc(Cl)cc4)=NN3c3ccccc3)cc2)cc1` (stereo not drawn): the zone of inhibition at 100 µg/disc in the assay with Penicillium chrysogenum [1] is 16 mm; with Klebsiella pneumoniae [2] it was 10 mm; in the assay on Bacillus subtilis [3], 13 mm; with Staphylococcus aureus [10], 11 mm; with Aspergillus niger [11], 14 mm. Also, the zone of inhibition at 50 µg/disc in the assay with Bacillus subtilis [4] amounted to 11 mm; in the assay on Klebsiella pneumoniae [6], 8 mm; in the assay on Aspergillus niger [7] it was 12 mm; in the assay with Penicillium chrysogenum [8], 14 mm; with Staphylococcus aureus [12], 9 mm. The “diameter of the inhibition zone (DIZ)” value in the assay on Pseudomonas aeruginosa [5] and in the assay on Pseudomonas aeruginosa [9] was “inactive” in each case.

`CC(=O)N1CCN(c2ccc(OCC3COC(Cn4ccnc4)(c4ccc(Cl)cc4Cl)O3)cc2)CC1` (stereo not drawn) [KETOCONAZOLE]: the zone of inhibition at 100 µg/disc with Penicillium chrysogenum [1] was 38 mm; in the assay with Aspergillus niger [11], 36 mm. Also, the minimal inhibitory concentration (MIC) – broadly, the smallest concentration in the dilution series that meets the test's criterion for growth inhibition – stood at 12.5 µg/mL (≈ 23.5 µM) in the assay with Penicillium chrysogenum [13] and 6.25 µg/mL (≈ 11.8 µM) in the assay on Aspergillus niger [14]. For the same molecule, the zone of inhibition at 50 µg/disc was 33 mm in the assay on Aspergillus niger [7] and 36 mm with Penicillium chrysogenum [8].
